Source: PubChem BioAssay (NCI)
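Cells were grown in 96-well plates and exposed to each compound for 48 hours at five concentrations; endpoints were interpolated linearly between bracketing concentrations, or set to the highest concentration if not reached. TGI: total growth inhibition.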

system: NCI-H226 lung; experiment: inhibition of tumour cell growth, NCI panel, 48 h

Structure (SMILES)	TGI
CCC(C)(C)/C(CC(O)(C(F)(F)F)C(F)(F)F)=N\O	> 100 µM
N#CSC#Cc1ccc(C#CSC#N)cc1	53.6 µM
Cc1cc(C)c(S(=O)(=O)N2CCCN(S(=O)(=O)c3c(C)cc(C)cc3C)OCCCON(S(=O)(=O)c3c(C)cc(C)cc3C)CCCN(S(=O)(=O)c3c(C)cc(C)cc3C)OCCCO2)c(C)c1	> 100 µM
CC(C)C1OC23CCCCC2C(C#N)(C#N)C1(C#N)C(=N)O3 (stereo not given)	> 100 µM
O=C(CC(=O)Nc1cccc(C(=O)O)c1)Nc1cccc(C(=O)O)c1	> 100 µM

system: NCI-H23 lung; experiment: inhibition of tumour cell growth, NCI panel, 48 h

Structure (SMILES)	TGI
CCC(C)(C)/C(CC(O)(C(F)(F)F)C(F)(F)F)=N\O	> 100 µM
N#CSC#Cc1ccc(C#CSC#N)cc1	35.5 µM
Cc1cc(C)c(S(=O)(=O)N2CCCN(S(=O)(=O)c3c(C)cc(C)cc3C)OCCCON(S(=O)(=O)c3c(C)cc(C)cc3C)CCCN(S(=O)(=O)c3c(C)cc(C)cc3C)OCCCO2)c(C)c1	> 100 µM
CC(C)C1OC23CCCCC2C(C#N)(C#N)C1(C#N)C(=N)O3 (stereo not given)	85.8 µM
NC(CCCCP(=O)(O)O)C(=O)O (stereo not given)	> 100 µM
O=C(CC(=O)Nc1cccc(C(=O)O)c1)Nc1cccc(C(=O)O)c1	> 100 µM
O=C(NCCCCCCNC(=O)c1cccc2ccccc12)Nc1cccc2ccccc12	> 100 µM

system: NCI-H460 lung; experiment: inhibition of tumour cell growth, NCI panel, 48 h

Structure (SMILES)	TGI
CCC(C)(C)/C(CC(O)(C(F)(F)F)C(F)(F)F)=N\O	> 100 µM
N#CSC#Cc1ccc(C#CSC#N)cc1	38.9 µM
Cc1cc(C)c(S(=O)(=O)N2CCCN(S(=O)(=O)c3c(C)cc(C)cc3C)OCCCON(S(=O)(=O)c3c(C)cc(C)cc3C)CCCN(S(=O)(=O)c3c(C)cc(C)cc3C)OCCCO2)c(C)c1	> 100 µM
CC(C)C1OC23CCCCC2C(C#N)(C#N)C1(C#N)C(=N)O3 (stereo not given)	32 µM
NC(CCCCP(=O)(O)O)C(=O)O (stereo not given)	> 100 µM
O=C(CC(=O)Nc1cccc(C(=O)O)c1)Nc1cccc(C(=O)O)c1	> 100 µM
O=C(NCCCCCCNC(=O)c1cccc2ccccc12)Nc1cccc2ccccc12	> 100 µM

system: NCI-H522 lung; experiment: inhibition of tumour cell growth, NCI panel, 48 h

Structure (SMILES)	TGI
CCC(C)(C)/C(CC(O)(C(F)(F)F)C(F)(F)F)=N\O	> 100 µM
N#CSC#Cc1ccc(C#CSC#N)cc1	29 µM
Cc1cc(C)c(S(=O)(=O)N2CCCN(S(=O)(=O)c3c(C)cc(C)cc3C)OCCCON(S(=O)(=O)c3c(C)cc(C)cc3C)CCCN(S(=O)(=O)c3c(C)cc(C)cc3C)OCCCO2)c(C)c1	> 100 µM
NC(CCCCP(=O)(O)O)C(=O)O (stereo not given)	> 100 µM
O=C(CC(=O)Nc1cccc(C(=O)O)c1)Nc1cccc(C(=O)O)c1	> 100 µM
O=C(NCCCCCCNC(=O)c1cccc2ccccc12)Nc1cccc2ccccc12	> 100 µM

system: NCI/ADR-RES ovarian; experiment: inhibition of tumour cell growth, NCI panel, 48 h

Structure (SMILES)	TGI
CCC(C)(C)/C(CC(O)(C(F)(F)F)C(F)(F)F)=N\O	> 100 µM
N#CSC#Cc1ccc(C#CSC#N)cc1	42.5 µM
Cc1cc(C)c(S(=O)(=O)N2CCCN(S(=O)(=O)c3c(C)cc(C)cc3C)OCCCON(S(=O)(=O)c3c(C)cc(C)cc3C)CCCN(S(=O)(=O)c3c(C)cc(C)cc3C)OCCCO2)c(C)c1	> 100 µM
CC(C)C1OC23CCCCC2C(C#N)(C#N)C1(C#N)C(=N)O3 (stereo not given)	> 100 µM
NC(CCCCP(=O)(O)O)C(=O)O (stereo not given)	> 100 µM
O=C(CC(=O)Nc1cccc(C(=O)O)c1)Nc1cccc(C(=O)O)c1	> 100 µM
O=C(NCCCCCCNC(=O)c1cccc2ccccc12)Nc1cccc2ccccc12	> 100 µM

system: OVCAR-3 ovarian; experiment: inhibition of tumour cell growth, NCI panel, 48 h

Structure (SMILES)	TGI
CCC(C)(C)/C(CC(O)(C(F)(F)F)C(F)(F)F)=N\O	> 100 µM
N#CSC#Cc1ccc(C#CSC#N)cc1	39.7 µM
Cc1cc(C)c(S(=O)(=O)N2CCCN(S(=O)(=O)c3c(C)cc(C)cc3C)OCCCON(S(=O)(=O)c3c(C)cc(C)cc3C)CCCN(S(=O)(=O)c3c(C)cc(C)cc3C)OCCCO2)c(C)c1	> 100 µM
CC(C)C1OC23CCCCC2C(C#N)(C#N)C1(C#N)C(=N)O3 (stereo not given)	59.8 µM
NC(CCCCP(=O)(O)O)C(=O)O (stereo not given)	> 100 µM
O=C(CC(=O)Nc1cccc(C(=O)O)c1)Nc1cccc(C(=O)O)c1	> 100 µM
O=C(NCCCCCCNC(=O)c1cccc2ccccc12)Nc1cccc2ccccc12	> 100 µM

system: OVCAR-4 ovarian; experiment: inhibition of tumour cell growth, NCI panel, 48 h

Structure (SMILES)	TGI
CCC(C)(C)/C(CC(O)(C(F)(F)F)C(F)(F)F)=N\O	> 100 µM
N#CSC#Cc1ccc(C#CSC#N)cc1	36 µM
Cc1cc(C)c(S(=O)(=O)N2CCCN(S(=O)(=O)c3c(C)cc(C)cc3C)OCCCON(S(=O)(=O)c3c(C)cc(C)cc3C)CCCN(S(=O)(=O)c3c(C)cc(C)cc3C)OCCCO2)c(C)c1	> 100 µM
NC(CCCCP(=O)(O)O)C(=O)O (stereo not given)	> 100 µM
O=C(CC(=O)Nc1cccc(C(=O)O)c1)Nc1cccc(C(=O)O)c1	> 100 µM
O=C(NCCCCCCNC(=O)c1cccc2ccccc12)Nc1cccc2ccccc12	> 100 µM

system: OVCAR-5 ovarian; experiment: inhibition of tumour cell growth, NCI panel, 48 h

Structure (SMILES)	TGI
CCC(C)(C)/C(CC(O)(C(F)(F)F)C(F)(F)F)=N\O	> 100 µM
N#CSC#Cc1ccc(C#CSC#N)cc1	34.9 µM
Cc1cc(C)c(S(=O)(=O)N2CCCN(S(=O)(=O)c3c(C)cc(C)cc3C)OCCCON(S(=O)(=O)c3c(C)cc(C)cc3C)CCCN(S(=O)(=O)c3c(C)cc(C)cc3C)OCCCO2)c(C)c1	> 100 µM
CC(C)C1OC23CCCCC2C(C#N)(C#N)C1(C#N)C(=N)O3 (stereo not given)	47.5 µM
NC(CCCCP(=O)(O)O)C(=O)O (stereo not given)	> 100 µM
O=C(NCCCCCCNC(=O)c1cccc2ccccc12)Nc1cccc2ccccc12	> 100 µM

system: OVCAR-8 ovarian; experiment: inhibition of tumour cell growth, NCI panel, 48 h

Structure (SMILES)	TGI
N#CSC#Cc1ccc(C#CSC#N)cc1	42.6 µM
Cc1cc(C)c(S(=O)(=O)N2CCCN(S(=O)(=O)c3c(C)cc(C)cc3C)OCCCON(S(=O)(=O)c3c(C)cc(C)cc3C)CCCN(S(=O)(=O)c3c(C)cc(C)cc3C)OCCCO2)c(C)c1	> 100 µM
CC(C)C1OC23CCCCC2C(C#N)(C#N)C1(C#N)C(=N)O3 (stereo not given)	49.8 µM
NC(CCCCP(=O)(O)O)C(=O)O (stereo not given)	> 100 µM
O=C(CC(=O)Nc1cccc(C(=O)O)c1)Nc1cccc(C(=O)O)c1	> 100 µM
O=C(NCCCCCCNC(=O)c1cccc2ccccc12)Nc1cccc2ccccc12	> 100 µM

system: PC-3 prostate; experiment: inhibition of tumour cell growth, NCI panel, 48 h

Structure (SMILES)	TGI
CCC(C)(C)/C(CC(O)(C(F)(F)F)C(F)(F)F)=N\O	> 100 µM
N#CSC#Cc1ccc(C#CSC#N)cc1	29.5 µM
Cc1cc(C)c(S(=O)(=O)N2CCCN(S(=O)(=O)c3c(C)cc(C)cc3C)OCCCON(S(=O)(=O)c3c(C)cc(C)cc3C)CCCN(S(=O)(=O)c3c(C)cc(C)cc3C)OCCCO2)c(C)c1	> 100 µM
CC(C)C1OC23CCCCC2C(C#N)(C#N)C1(C#N)C(=N)O3 (stereo not given)	> 100 µM
NC(CCCCP(=O)(O)O)C(=O)O (stereo not given)	> 100 µM
O=C(CC(=O)Nc1cccc(C(=O)O)c1)Nc1cccc(C(=O)O)c1	> 100 µM
O=C(NCCCCCCNC(=O)c1cccc2ccccc12)Nc1cccc2ccccc12	> 100 µM

system: RPMI-8226 leukemia; experiment: inhibition of tumour cell growth, NCI panel, 48 h

Structure (SMILES)	TGI
CCC(C)(C)/C(CC(O)(C(F)(F)F)C(F)(F)F)=N\O	> 100 µM
N#CSC#Cc1ccc(C#CSC#N)cc1	> 100 µM
Cc1cc(C)c(S(=O)(=O)N2CCCN(S(=O)(=O)c3c(C)cc(C)cc3C)OCCCON(S(=O)(=O)c3c(C)cc(C)cc3C)CCCN(S(=O)(=O)c3c(C)cc(C)cc3C)OCCCO2)c(C)c1	> 100 µM
NC(CCCCP(=O)(O)O)C(=O)O (stereo not given)	> 100 µM
O=C(CC(=O)Nc1cccc(C(=O)O)c1)Nc1cccc(C(=O)O)c1	> 100 µM
O=C(NCCCCCCNC(=O)c1cccc2ccccc12)Nc1cccc2ccccc12	> 100 µM

system: RXF 393 renal; experiment: inhibition of tumour cell growth, NCI panel, 48 h

Structure (SMILES)	TGI
CCC(C)(C)/C(CC(O)(C(F)(F)F)C(F)(F)F)=N\O	> 100 µM
N#CSC#Cc1ccc(C#CSC#N)cc1	35.7 µM
Cc1cc(C)c(S(=O)(=O)N2CCCN(S(=O)(=O)c3c(C)cc(C)cc3C)OCCCON(S(=O)(=O)c3c(C)cc(C)cc3C)CCCN(S(=O)(=O)c3c(C)cc(C)cc3C)OCCCO2)c(C)c1	> 100 µM
CC(C)C1OC23CCCCC2C(C#N)(C#N)C1(C#N)C(=N)O3 (stereo not given)	46.4 µM
NC(CCCCP(=O)(O)O)C(=O)O (stereo not given)	> 100 µM
O=C(NCCCCCCNC(=O)c1cccc2ccccc12)Nc1cccc2ccccc12	> 100 µM

system: SF-268 CNS; experiment: inhibition of tumour cell growth, NCI panel, 48 h

Structure (SMILES)	TGI
CCC(C)(C)/C(CC(O)(C(F)(F)F)C(F)(F)F)=N\O	> 100 µM
N#CSC#Cc1ccc(C#CSC#N)cc1	51.7 µM
Cc1cc(C)c(S(=O)(=O)N2CCCN(S(=O)(=O)c3c(C)cc(C)cc3C)OCCCON(S(=O)(=O)c3c(C)cc(C)cc3C)CCCN(S(=O)(=O)c3c(C)cc(C)cc3C)OCCCO2)c(C)c1	> 100 µM
CC(C)C1OC23CCCCC2C(C#N)(C#N)C1(C#N)C(=N)O3 (stereo not given)	46.6 µM
NC(CCCCP(=O)(O)O)C(=O)O (stereo not given)	> 100 µM
O=C(CC(=O)Nc1cccc(C(=O)O)c1)Nc1cccc(C(=O)O)c1	> 100 µM
O=C(NCCCCCCNC(=O)c1cccc2ccccc12)Nc1cccc2ccccc12	> 100 µM

system: SF-295 CNS; experiment: inhibition of tumour cell growth, NCI panel, 48 h

Structure (SMILES)	TGI
CCC(C)(C)/C(CC(O)(C(F)(F)F)C(F)(F)F)=N\O	> 100 µM
N#CSC#Cc1ccc(C#CSC#N)cc1	43.4 µM
Cc1cc(C)c(S(=O)(=O)N2CCCN(S(=O)(=O)c3c(C)cc(C)cc3C)OCCCON(S(=O)(=O)c3c(C)cc(C)cc3C)CCCN(S(=O)(=O)c3c(C)cc(C)cc3C)OCCCO2)c(C)c1	> 100 µM
CC(C)C1OC23CCCCC2C(C#N)(C#N)C1(C#N)C(=N)O3 (stereo not given)	> 100 µM
NC(CCCCP(=O)(O)O)C(=O)O (stereo not given)	> 100 µM
O=C(CC(=O)Nc1cccc(C(=O)O)c1)Nc1cccc(C(=O)O)c1	> 100 µM
O=C(NCCCCCCNC(=O)c1cccc2ccccc12)Nc1cccc2ccccc12	> 100 µM

system: SF-539 CNS; experiment: inhibition of tumour cell growth, NCI panel, 48 h

Structure (SMILES)	TGI
CCC(C)(C)/C(CC(O)(C(F)(F)F)C(F)(F)F)=N\O	> 100 µM
N#CSC#Cc1ccc(C#CSC#N)cc1	43.3 µM
Cc1cc(C)c(S(=O)(=O)N2CCCN(S(=O)(=O)c3c(C)cc(C)cc3C)OCCCON(S(=O)(=O)c3c(C)cc(C)cc3C)CCCN(S(=O)(=O)c3c(C)cc(C)cc3C)OCCCO2)c(C)c1	> 100 µM
CC(C)C1OC23CCCCC2C(C#N)(C#N)C1(C#N)C(=N)O3 (stereo not given)	39.4 µM
NC(CCCCP(=O)(O)O)C(=O)O (stereo not given)	> 100 µM
